Patent US10117919B2, “Methods and materials for generating CD8+ T cells having the ability to recognize cancer cells expressing a HER2/neu polypeptide” (Mayo Foundation for Medical Education and Research, priority 2012, dated 2018)

Columns and labels:
immunoproteasome = assay: In vitro cleavage of HER-2/neu 19-mer by purified immunoproteasome; assay type: biochemical; settings: from HER-2/neu 19-mer (364-382)
Protocol: (§1) The following was performed to determine if E75 is processed from HER-2/neu or HER-2/neu fragments by multi-subunit enzymes referred to as the proteasome and immunoproteasome, which are required for loading of polypeptide onto MHC class I molecules. […] (SEQ ID NO:3), was synthesized. […] The 19-mer was then cleaved using purified 20S proteasome and immunoproteasome.

20S proteasome = assay: In vitro cleavage of HER-2/neu 19-mer by purified 20S proteasome; assay type: biochemical; settings: from HER-2/neu 19-mer (364-382)
Protocol: as §1

[1] = test system: 20S proteasome and immunoproteasome; assay: Processing of longer HER-2/neu polypeptides (19-mer, 23-mer) treated with the proteasomes; assay type: biochemical
Protocol: as §1

[2] = test system: target cells pulsed with polypeptide; assay: IFN-γ ELIspot of polypeptide-generated CD8+ T cell lines against polypeptide-pulsed target cells; assay type: cell-based, human
[3] = test system: breast cancer cell lines that express varying levels of HER-2/neu; assay type: cell-based, human
breast cancer cell lines = assay: Cytotoxic T cell assay: lysis of breast cancer cells by polypeptide-generated CD8+ T cells; assay type: cell-based, human; settings: compared to CD8+ T cells generated using p369-377
Protocol: Another in vitro assay was performed to measure lysis of the breast cancer cells by the T cells.

[4] = test system: HLA-A2 / HLA-ABC restricted T cell reactivity; assay: IFN-γ release of generated T cells in presence of neutralizing HLA-A2 or HLA-ABC antibodies; assay type: cell-based, human; settings: versus control isotype matched antibody
tumor cells = assay: Tumor cell lysis by generated T cells in presence of neutralizing HLA-A2 or HLA-ABC antibodies; assay type: cell-based, human

Sequence	Peptide generated by immunoproteasome (immunoproteasome)	Peptide generated by proteasome (20S proteasome)	other results
GSLAFLPESF (homo sapiens) [HER-2/neu amino acids 372-381]	+	+	–
GSLAFLPESFD (homo sapiens)	+	+	–
SLAFLPESF (homo sapiens)	+	+	–
SLAFLPESFD (homo sapiens)	+	+	Release from 23-mer treated with the proteasomes ([1]; 23-mer containing p373-382 as substrate): released from the 23-mer; Recognition of polypeptide-pulsed target cells by T cells generated with the polypeptide [2]: recognized target cells pulsed with either the p373-382 polypeptide or the p369-377 polypeptide; Recognition of breast cancer cells by CD8+ T cells generated with the polypeptide [3]: able to recognize the breast cancer cells at much higher levels; Lysis of breast cancer cell lines by CD8+ T cells generated with the polypeptide (breast cancer cell lines): recognized and lysed all tested breast cancer cell lines at much higher levels; Reactivity (IFN-γ release) of generated T cells with neutralizing HLA-A2 or HLA-ABC antibody [4]: markedly suppressed; Lysis of tumor cells by generated T cells with neutralizing HLA-A2 or HLA-ABC antibody (tumor cells): blocked lysis of tumor cells
FAGCKKIFGS (homo sapiens)	+	+	–
FGSLAFLPES (homo sapiens) [HER-2/neu amino acids 371-380]	+	+	–
FAGCKKIFGSL (homo sapiens) [HER-2/neu amino acids 364-374]	+	+	–
AFLPESFD (homo sapiens)	+	+	–
FAGCKKIFGSLAFLPESFD (homo sapiens) [19-mer polypeptide, substrate of the cleavage assay]	–	–	Processing by purified 20S proteasome and immunoproteasome ([1]; 19-mer FAGCKKIFGSLAFLPESFD as substrate): consistently found to be processed into several other shorter polypeptides
FGSLAFLPESF (homo sapiens) [HER-2/neu amino acids 371-381]	+	+	–
LAFLPESFD (homo sapiens)	+	+	–
